System: HCV (Ib) RNA replication
Experiment: Cell-based luciferase reporter HCV (1b) RNA replication assay (replicon cell lines Huh-7 5.2 and ET)
Set-up: species or system Hepatitis C virus
Details: Hepatitis C virus, Huh-7, 96 h, HCV 1b genotype replicon, luciferase readout, 4 days incubation; read-out: EC50_1b
Summary of the method: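 Compounds were tested at eleven concentrations in duplicate over 4 days at 37 °C, 5% CO2. The cells were luciferase-reporter HCV 1b replicon lines 5.2 (NS5A adaptive mutation) or ET (NS4B mutation). Luminescence of lysates was measured, and IC50s were derived by nonlinear curve fitting.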

Compound	EC50 [nM]
COC(=O)N[C@H](C(=O)N1CCC[C@H]1c1nc2cc(-c3ccc(-c4ccc5nc([C@@H]6CCCN6C(=O)[C@@H](NC(=O)OC)C(C)C)[nH]c5c4)cc3C#N)ccc2[nH]1)C(C)C [Compound 5, ((S)-1-{(S)-2-[5-(2-Cyano-4-{2-[(S)-1-((S)-2-methoxycarbonylamino-3-methyl-butyryl)-pyrrolidin-2-yl]-1H-benzoimidazol-5-yl}-phenyl)-1H-benzoimidazol-2-yl]-pyrrolidine-1-carbonyl}-2-methyl-propyl)-carbamic acid methyl ester]	≤ 5
COC(=O)NCC(=O)N1CCC[C@H]1c1nc2cc(C#Cc3ccc4nc([C@@H]5CCCN5C(=O)CNC(=O)OC)[nH]c4c3)ccc2[nH]1 [Compound 93]	5 to 5000
COC(=O)N[C@H](C(=O)N1CCOC[C@H]1c1nc2cc(-c3ccc(-c4ccc5nc([C@@H]6COCCN6C(=O)[C@@H](NC(=O)OC)C(C)C)[nH]c5c4)cc3)ccc2[nH]1)C(C)C [Compound 168]	≤ 5
COC(=O)N[C@H](C(=O)N1CCC[C@H]1c1nc2cc(-c3ccc(-c4ccc5nc([C@@H]6CCCN6C(=O)[C@@H](NC(=O)OC)C(C)C)[nH]c5c4)c4c3OCCO4)ccc2[nH]1)C(C)C [Compound 172]	≤ 5
COC(=O)N[C@H](C(=O)N1CCC[C@H]1c1nc2cc(-c3ccc(-c4ccc5nc([C@@H]6CCCN6C(=O)[C@@H](NC(=O)OC)C(C)C)[nH]c5c4)c(OC)c3OC)ccc2[nH]1)C(C)C [Compound 166]	≤ 5
COC(=O)N[C@@H](C)C(=O)N1CCC[C@H]1c1nc2cc(C#Cc3ccc4c(c3)N=C([C@@H]3CCCN3C(=O)C(c3ccccc3)N(C)C)C4)ccc2[nH]1 (some centres unmarked) [Compound 59]	≤ 5
COC(=O)N[C@H](C(=O)N1CCC[C@H]1c1nc2cc(-c3ccc(-c4ccc5nc([C@@H]6CCCN6C(=O)[C@@H](NC(=O)OC)C(C)C)[nH]c5c4)cc3CF)ccc2[nH]1)C(C)C [Compound 220]	≤ 5
CCCCc1cc(-c2ccc3[nH]c([C@@H]4CCCN4C(=O)[C@@H](NC(=O)O[C@H]4CCOC4)C(C)C)nc3c2)sc1-c1ccc2[nH]c([C@@H]3CCCN3C(=O)[C@@H](NC(=O)O[C@H]3CCOC3)C(C)C)nc2c1 [Compound 158]	≤ 5
CC(C)(C)OC(=O)NC(C)(C)C(=O)N1CCC[C@H]1c1nc2cc(C#Cc3ccc4[nH]c([C@@H]5CCCN5C(=O)C(C)(C)NC(=O)OC(C)(C)C)nc4c3)ccc2[nH]1 [Compound 128]	5 to 5000
COC(=O)N[C@H](C(=O)N1C[C@@H](C)C[C@H]1c1nc2cc(-c3ccc(-c4ccc5[nH]c([C@@H]6C[C@H](C)CN6C(=O)[C@@H](NC(=O)OC)C(C)C)nc5c4)c4nsnc34)ccc2[nH]1)C(C)C [Compound 304]	≤ 5
COC(=O)N(C)[C@H](C(=O)N1CCC[C@H]1c1nc2cc(CCc3ccc4nc([C@@H]5CCCN5C(=O)[C@H](C(C)C)N(C)C(=O)OC)[nH]c4c3)ccc2[nH]1)C(C)C [Compound 72]	≤ 5
O=C(CC1CCCCC1)N1CCC[C@H]1c1nc2cc(C#Cc3ccc4[nH]c([C@@H]5CCCN5C(=O)CC5CCCCC5)nc4c3)ccc2[nH]1 [Compound 103]	5 to 5000
COC(=O)N[C@H](C(=O)N1C[C@@H](C(F)F)C[C@H]1c1nc2cc(-c3ccc(-c4ccc5[nH]c([C@@H]6C[C@H](C(F)F)CN6C(=O)[C@@H](NC(=O)OC)C(C)C)nc5c4)cc3)ccc2[nH]1)C(C)C [Compound 315]	≤ 5
CCC(C)CN1CCC[C@H]1c1nc2cc(C#Cc3ccc4[nH]c([C@@H]5CCCN5CC(C)CC)nc4c3)ccc2[nH]1 (some centres unmarked) [Compound 137]	5 to 5000
O=C(OCc1ccccc1)N1COC[C@@H]1C(=O)N1CCC[C@H]1c1nc2cc(C#Cc3ccc4[nH]c([C@@H]5CCCN5C(=O)[C@H]5COCN5C(=O)OCc5ccccc5)nc4c3)ccc2[nH]1 [Compound 119]	≤ 5
Cn1c([C@@H]2CCCN2C(=O)OC(C)(C)C)nc2cc(-c3ccc(-c4ccc5c(c4)nc([C@@H]4CCCN4C(=O)OC(C)(C)C)n5C)cc3)ccc21 [Compound 225]	> 5000
COC(=O)N[C@H](C(=O)N1CCC[C@H]1c1nc2cc(C#Cc3ccc4nc([C@@H]5CCCN5C(=O)NC(C)C)[nH]c4c3)ccc2[nH]1)C(C)C [Compound 122]	≤ 5
COC(=O)N[C@H](C(=O)N1CCC[C@H]1c1nc2ccc(-c3cccc(-c4ccc5nc([C@@H]6CCCN6C(=O)[C@@H](NC(=O)OC)C(C)C)[nH]c5c4)c3)cc2[nH]1)C(C)C [Compound 2, ((S)-1-{(S)-2-[5-(3-{2-[(S)-1-((S)-2-Methoxycarbonylamino-3-methyl-butyryl)-pyrrolidin-2-yl]-1H-benzoimidazol-5-yl}-phenyl)-1H-benzoimidazol-2-yl]-pyrrolidine-1-carbonyl}-2-methyl-propyl)-carbamic acid methyl ester]	5 to 5000

Compound	EC50 [nM]
COC(=O)N(C)[C@H](C(=O)N1C[C@@H](C)C[C@H]1c1nc2cc(-c3cc(F)c(-c4ccc5[nH]c([C@@H]6C[C@H](C)CN6C(=O)[C@H](C(C)C)N(C)C(=O)OC)nc5c4)cc3F)ccc2[nH]1)C(C)C [Compound 282]	≤ 5
COC(=O)N[C@H](C(=O)N1[C@H](C)CC[C@H]1c1nc2cc(-c3ccc(-c4ccc5[nH]c([C@@H]6CC[C@@H](C)N6C(=O)[C@@H](NC(=O)OC)C(C)C)nc5c4)cc3)ccc2[nH]1)C(C)C [Compound 310]	≤ 5
COC(=O)N[C@H](C(=O)N1[C@@H](C)CC[C@H]1c1nc2cc(-c3csc4c(-c5ccc6[nH]c([C@@H]7CC[C@H](C)N7C(=O)[C@@H](NC(=O)OC)C(C)C)nc6c5)csc34)ccc2[nH]1)C(C)C [Compound 319]	≤ 5
COC(=O)N[C@H](C(=O)N1CCCC1c1nc2cc(-c3ccc(-c4ccc(-c5ccc6[nH]c(C7CCCN7C(=O)[C@@H](NC(=O)OC)C(C)C)nc6c5)s4)s3)ccc2[nH]1)C(C)C (some centres unmarked) [Compound 217]	≤ 5
COC(=O)N[C@H](C(=O)N1CCC[C@H]1c1nc2cc(-c3ccc(-c4ccc5[nH]c([C@@H]6CCCN6C(=O)[C@@H](NC(=O)OC)C(C)C)nc5c4)c(C#N)n3)ccc2[nH]1)C(C)C [Compound 11, ((S)-1-{(S)-2-[5-(2-Cyano-6-{2-[(S)-1-((S)-2-methoxycarbonylamino-3-methyl-butyryl)-pyrrolidin-2-yl]-1H-benzoimidazol-5-yl}-pyridin-3-yl)-1H-benzoimidazol-2-yl]-pyrrolidine-1-carbonyl}-2-methyl-propyl)-carbamicacid methyl ester]	5 to 5000
COC(=O)N[C@H](C(=O)N1C[C@@H](O)C[C@H]1c1nc2cc(-c3ccc(-c4ccc5[nH]c([C@@H]6C[C@H](O)CN6C(=O)[C@@H](NC(=O)OC)C(C)C)nc5c4)c(C)c3)ccc2[nH]1)C(C)C [Compound 265]	≤ 5
COC(=O)N[C@H](C(=O)N1[C@@H](C)CC[C@H]1c1nc2cc(-c3cc(F)c(-c4ccc5[nH]c([C@@H]6CC[C@H](C)N6C(=O)[C@@H](NC(=O)OC)C(C)C)nc5c4)cc3F)ccc2[nH]1)C(C)C [Compound 314]	≤ 5
COC(=O)N[C@H](C(=O)N1CC(F)(F)C[C@H]1c1nc2cc(-c3ccc(-c4ccc5nc([C@@H]6CC(F)(F)CN6C(=O)[C@@H](NC(=O)OC)C(C)C)[nH]c5c4)cc3)ccc2[nH]1)C(C)C [Compound 3, ((S)-1-{(S)-2-[5-(4-{2-[(S)-4,4-Difluoro-1-((S)-2-methoxycarbonylamino-3-methyl-butyryl)-pyrrolidin-2-yl]-1H-benzoimidazol-5-yl}-phenyl)-1H-benzoimidazol-2-yl]-4,4-difluoro-pyrrolidine-1-carbonyl}-2-methyl-propyl)-carbamic acid methyl ester]	≤ 5
COC(=O)N[C@H](C(=O)N1CCC[C@H]1c1nc2cc(C#Cc3ccc4nc([C@@H]5CCCN5C(=O)[C@H](C(C)C)N(C)C(=O)OC)[nH]c4c3)ccc2[nH]1)C(C)C [Compound 117]	≤ 5
CCc1cc(-c2ccc3[nH]c([C@@H]4CCCN4C(=O)[C@@H](NC(=O)OC)C(C)C)nc3c2)ccc1-c1ccc2[nH]c([C@@H]3CCCN3C(=O)[C@@H](NC(=O)OC)C(C)C)nc2c1 [Compound 213]	≤ 5
COC(=O)N[C@H](C(=O)N1CCC[C@H]1c1nc2cc(-c3ccc(-c4ccc5nc([C@@H]6CCCN6C(=O)[C@@H](NC(=O)OC)C(C)C)[nH]c5c4)cc3NC(C)=O)ccc2[nH]1)C(C)C [Compound 164]	≤ 5
CC(C)CCN1CCC[C@H]1c1nc2cc(C#Cc3ccc4[nH]c([C@@H]5CCCN5CCC(C)C)nc4c3)ccc2[nH]1 [Compound 135]	5 to 5000
COC(=O)N[C@H](C(=O)N1CCC[C@H]1c1nc2ccc(CCc3ccc4nc([C@@H]5CCCN5C(=O)[C@@H](NC(=O)OC)C(C)C)[nH]c4c3)cc2[nH]1)C(C)C [Compound 64]	≤ 5
COC(=O)N[C@H](C(=O)N1CCC[C@H]1c1nc2cc(C#Cc3ccc4[nH]c([C@@H]5CCCN5C(=O)[C@@H](NC(=O)OC)C(C)(C)C)nc4c3)ccc2[nH]1)C(C)C [Compound 36, {(S)-1-[(S)-2-(5-{2-[(S)-1-((S)-2-Methoxycarbonylamino-3-methyl-butyryl)-pyrrolidin-2-yl]-1H-benzoimidazol-5-ylethynyl}-1H-benzoimidazol-2-yl)-pyrrolidine-1-carbonyl]-2,2-dimethyl-propyl}-carbamic acid methyl ester]	≤ 5
COC(=O)N[C@H](C(=O)N1CC(C)(C)C[C@H]1c1nc2cc(-c3cc4sc(-c5ccc6[nH]c([C@@H]7CC(C)(C)CN7C(=O)[C@@H](NC(=O)OC)C(C)C)nc6c5)cc4s3)ccc2[nH]1)C(C)C [Compound 325]	≤ 5
COC(=O)N[C@H](C(=O)N1CCC[C@H]1c1nc2cc(-c3cscc3-c3ccc4[nH]c([C@@H]5CCCN5C(=O)[C@@H](NC(=O)OC)C(C)C)nc4c3)ccc2[nH]1)C(C)C [Compound 44, Dimethyl-(2S,2′S)-1,1′-((2S,2′S)-2,2′-(5,5′-(thiophene-3,4-diyl)bis(1H-benzo[d]imidazole-5,2-diyl))bis(pyrrolidine-2,1-diyl))bis(3-methyl-1-oxobutane-2,1-diyl)dicarbamate]	≤ 5
COC(=O)N(C)[C@H](C(=O)N1C[C@@H](C)C[C@H]1c1nc2cc(-c3ccc(-c4ccc5[nH]c([C@@H]6C[C@H](C)CN6C(=O)[C@H](C(C)C)N(C)C(=O)OC)nc5c4)cc3)ccc2[nH]1)C(C)C [Compound 247]	≤ 5

— patent publication US8354419B2, “Benzimidazole analogues for the treatment or prevention of flavivirus infections” (Vertex Pharmaceuticals Incorporated, priority 2009, dated 2013)
